Results reported in patent US9440933B2, “Azole derivative, method for producing same, intermediate compound, and agricultural or horticultural chemical agent and industrial material protecting agent” (KUREHA CORPORATION, priority 2011, dated 2016).

What was measured:
[1] = tested on: wheat powdery mildew-causing microbes; experiment: Controlling activity to wheat powdery mildew of seed treatment (pot test); format: in vivo, Erysiphe graminis f. sp tritici; conditions: 2 mg in DMSO applied to wheat seeds 1 g, 14 to 28 days after seeding
Experimental: Controlling activity to wheat powdery mildew was examined in a pot test. Each of the inventive compounds […]-53, and a comparative compound (1) was weighed in an amount of 2 mg and dissolved in DMSO (18 μl). The solution thus prepared was applied to wheat seeds 1 g in a vial, 8 wheat seeds were seeded in a 80 cm^2 pot. The wheat was grown, as water was supplied from blow, in a greenhouse where wheat powdery mildew-causing microbes are present abundantly. The incidence rate was determined and the controlling rate and additionally the controlling index calculated 14 to 28 days after seeding. The controlling rate was calculated and the wheat powdery mildew controlling index determined according to the following equation: Controlling rate=(1-Incidence rate in treated region/Incidence rate in non-treated region)×100(%) [table]

[2] = tested on: wheat leaf rust-causing microbe; experiment: Wheat leaf rust-controlling activity (foliar spray, pot test); format: in vivo, Puccinia recondita
[3] = tested on: wheat; experiment: Damage to wheat (growth inhibition) by seed treatment (pot test); conditions: 2 mg in DMSO applied to wheat seeds 1 g, 14 to 28 days after seeding, larger index = smaller damage
[4] = tested on: wheat; experiment: Damage (necrosis) to wheat by seed treatment (pot test); format: in vivo; conditions: 2 mg in DMSO applied to wheat seeds 1 g, 12 days after seeding
Experimental: Damage (necrosis) to wheat was examined in a pot test. An inventive compound 1-2 and a comparative compound (1) were dissolved in DMSO (18 μl) respectively in an amount of 2 mg. The solution thus prepared was applied to wheat seeds 1 g in a vial and 8 seeds were seeded in a 80 cm^2 pot. The plant was grown in green house, as water was supplied from below, and the damage was determined 12 days after seeding.

[5] = tested on: wheat leaf blight-causing microbe; experiment: Antimicrobial activity to wheat leaf blight-causing microbe (PDA plate, hyphal expansion inhibition); format: cell-based, Septoria tritici; conditions: PDA medium, 25° C., 14 days; for inhibition at 50 µg/mL / inhibition at 1.25 µg/mL: 336 h; for inhibition at 50 µg/mL: read-out: Growth inhibition; for inhibition at 1.25 µg/mL: test sample concentration 1.25 mg/L, read-out: hyphal expansion-inhibiting rate
Experimental: In this Test Example, antimicrobial activity of the inventive compounds to wheat leaf blight-causing microbe was determined and compared with that of the comparative compound (1).

[6] = tested on: wheat leaf rust-causing microbe; experiment: Control activity of wheat leaf rust by seed treatment (pot test); format: in vivo, Puccinia recondita; conditions: 2 mg in DMSO applied to wheat seeds 10 g, inoculated 21 days after seeding
Experimental: Controlling activity to wheat leaf rust was examined in a pot test. […] The solution prepared was applied to wheat seeds 10 g in a vial and 8 wheat seeds were seeded in a 80 cm^2 pot. The seeds were grown in greenhouse, as water was supplied from below; a wheat leaf rust-causing microbe was inoculated 21 days after seeding; and the pot was stored in a constant-humidity box for 2 days. The plant was grown in green house, as water was supplied from below, and the incidence rate was determined and the controlling rate calculated […]. The controlling rate was calculated according to the equation below and used as the wheat leaf rust-controlling rate. Controlling rate=(1−Incidence rate in treated region/Incidence rate in non-treated region)×100(%)

[7] = tested on: Apple alternaria blotch-causing microbe (Alternaria alternata); experiment: Antimicrobial activity to various pathogenic microbes: A.m; conditions: 50 mg/L
Experimental: (§1) An inventive compound was dissolved in dimethylsulfoxide 2 ml. The solution 0.6 ml was added to a PDA medium (potato-dextrose-agar medium) 60 ml at around 60° C.
(§2) A flat plate containing a test microbe (wheat leaf blight-causing microbe) cultured separately was punched into pieces with a cork borer having a diameter of 4 mm and the circular plate obtained was placed on the flat plate media containing the chemical described above. The plates were cultured at 25° C. for 14 days after inoculation and the diameter of the microbial colony was determined. Hyphal expansion-inhibiting rate was calculated according to the following equation: R=100(dc−dt)/dc (wherein, R: hyphal expansion-inhibiting rate (%), dc: diameter of microbial colony on non-treated flat plate, dt: diameter of microbial colony on chemically-treated flat plate).
(§3) In this Test Example, the antimicrobial activity of the inventive compounds to various plant disease-causing fungi and industrial material-eroding microorganisms was studied by the method described in Example 1.
(§4) The results thus obtained were evaluated in 5 stages according to the criteria below:
Apple alternaria blotch-causing microbe (Alternaria alternata) A.m

[8] = tested on: Wheat fusarium blight-causing microbe (Fusarium graminearum); format: cell-based; conditions: 50 mg/L
[9] = tested on: Sclerotinia rot-causing microbe (Sclerotinia sclerotiorum); experiment: Antimicrobial activity to various pathogenic microbes: S.s; conditions: 50 mg/L
Experimental: as §1, §2, §4
Sclerotinia rot-causing microbe (Sclerotinia sclerotiorum) S.s

[10] = tested on: Rice bakanae disease-causing microbe (Gibberella fujikuroi); experiment: Antimicrobial activity to various pathogenic microbes: G.f; conditions: 50 mg/L
Experimental: as §1, §2, §4

[11] = tested on: Cucumber Fusarium wilt-causing microbe (Fusarium oxysporum); experiment: Antimicrobial activity to various pathogenic microbes: F.c; conditions: 50 mg/L
Experimental: as §1, §2, §4

[12] = tested on: Barley scald-causing microbe (Rhynchosporium secalis); experiment: Antimicrobial activity to various pathogenic microbes: R.sec; conditions: 50 mg/L
Experimental: as §1, §2, §3, §4
Barley scald-causing microbe (Rhynchosporium secalis) R.sec

[13] = tested on: Rice blast-causing microbe (Pyricularia oryzae); format: cell-based; conditions: 50 mg/L
[14] = tested on: Barley loose smut-causing microbe (Ustilago nuda); experiment: Antimicrobial activity to various pathogenic microbes: U.n; conditions: 50 mg/L
Experimental: as §1
(§5) The plates were cultured at 25° C. for 14 days after inoculation and the diameter of the microbial colony was determined. Hyphal expansion-inhibiting rate was calculated according to the following equation: R=100(dc−dt)/dc (wherein, R: hyphal expansion-inhibiting rate (%), dc: diameter of microbial colony on non-treated flat plate, dt: diameter of microbial colony on chemically-treated flat plate).
as §4
Barley loose smut-causing microbe (Ustilago nuda) U.n

[15] = tested on: Wheat glume blotch-causing microbe (Phaeosphaeria nodorum); experiment: Antimicrobial activity to various pathogenic microbes: P.n; conditions: 50 mg/L
Experimental: as §1, §2, §3, §4
Wheat glume blotch-causing microbe (Phaeosphaeria nodorum) P.n

[16] = tested on: Gray mold-causing microbe (Botrytis cinerea); experiment: Antimicrobial activity to various pathogenic microbes: B.c; conditions: 50 mg/L
Experimental: as §1, §2, §3, §4
Gray mold-causing microbe (Botrytis cinerea) B.c

[17] = tested on: Wheat eye spot-causing microbe (Pseudocercoporella herpotrichoides); experiment: Antimicrobial activity to various pathogenic microbes: P.h; conditions: 50 mg/L
Experimental: as §1, §5, §4
Wheat eye spot-causing microbe (Pseudocercoporella herpotrichoides) P.h

[18] = Concentration 25 g/ha, wettable powder sprayed on wheat (Norin No. 61), 9 to 14 days after inoculation

CC1(C)CC[C@H](Cc2ccc(Cl)cc2)[C@@]1(O)Cn1cncn1 (racemic) [Compound (1), (1RS,5SR)-5-(4-chlorobenzyl)-2-dimethyl-1-(1H-1,2,4-triazol-1-ylmethyl)cyclopentanol, reference compound]
Controlling index Wheat powdery mildew [1]: 5 (Controlling rate: 40 or more) | Controlling index [2, 18]: 5 (81 to 100) | Controlling index ([2]; test sample concentration 1 g/ha, wettable powder sprayed on wheat): 4 (61 to 80) | Damage index Growth inhibition [3]: 0 (80% or more) | Damage (necrosis) [4]: necrotic symptom | inhibition at 50 µg/mL ([5]; Concentration 50 mg/L): > 80% | inhibition at 1.25 µg/mL [5]: 60 to 80% | controlling rate (wheat leaf rust) [6]: 88%

COC(=O)[C@]1(C)CC[C@@H](Cc2ccc(Cl)cc2)[C@]1(O)Cn1cncn1 (racemic) [Compound I-2, methyl-(1RS,2RS,3SR)-3-(4-chlorobenzyl)-2-hydroxy-1-methyl-2-(1H-1,2,4-triazol-1-ylmethyl)cyclopentanecarboxylate]
Controlling index Wheat powdery mildew [1]: 5 (Controlling rate: 40 or more) | Growth inhibition (hyphal expansion-inhibiting rate grade) A.m [7]: 5 (hyphal expansion-inhibiting rate: 80% or more) | Controlling index [2, 18]: 5 (81 to 100) | Growth inhibition (hyphal expansion-inhibiting rate grade) F.g [8]: 5 (hyphal expansion-inhibiting rate: 80% or more) | Growth inhibition (hyphal expansion-inhibiting rate grade) S.s [9]: 5 (hyphal expansion-inhibiting rate: 80% or more) | Growth inhibition (hyphal expansion-inhibiting rate grade) G.f [10]: 5 (hyphal expansion-inhibiting rate: 80% or more) | Damage index Growth inhibition [3]: 1 (60% or more and less than 80%) | Growth inhibition (hyphal expansion-inhibiting rate grade) F.c [11]: 5 (hyphal expansion-inhibiting rate: 80% or more) | Growth inhibition (hyphal expansion-inhibiting rate grade) R.sec [12]: 5 (hyphal expansion-inhibiting rate: 80% or more) | Damage (necrosis) [4]: no necrotic symptom | Growth inhibition (hyphal expansion-inhibiting rate grade) P.o [13]: 5 (hyphal expansion-inhibiting rate: 80% or more) | Growth inhibition (hyphal expansion-inhibiting rate grade) U.n [14]: 5 (hyphal expansion-inhibiting rate: 80% or more) | Growth inhibition (hyphal expansion-inhibiting rate grade) P.n [15]: 5 (hyphal expansion-inhibiting rate: 80% or more) | Growth inhibition (hyphal expansion-inhibiting rate grade) B.c [16]: 5 (hyphal expansion-inhibiting rate: 80% or more) | inhibition at 50 µg/mL ([5]; Concentration 50 mg/L): > 80% | inhibition at 1.25 µg/mL [5]: ≥ 80% | controlling rate (wheat leaf rust) [6]: 95% | Growth inhibition (hyphal expansion-inhibiting rate grade) P.h [17]: 5 (hyphal expansion-inhibiting rate: 80% or more)

CCCOC(=O)[C@]1(C)CC[C@H](Cc2ccc(Cl)cc2)[C@@]1(O)Cn1cncn1 (racemic) [Compound I-136, n-propyl-(1RS,2SR,3RS)-3-(4-chlorobenzyl)-2-hydroxy-1-methyl-2-(1H-1,2,4-triazol-1-ylmethyl)cyclopentanecarboxylate]
Controlling index Wheat powdery mildew [1]: 5 (Controlling rate: 40 or more) | Growth inhibition (hyphal expansion-inhibiting rate grade) A.m [7]: 5 (hyphal expansion-inhibiting rate: 80% or more) | Controlling index [2, 18]: 5 (81 to 100) | Growth inhibition (hyphal expansion-inhibiting rate grade) F.g [8]: 5 (hyphal expansion-inhibiting rate: 80% or more) | Growth inhibition (hyphal expansion-inhibiting rate grade) S.s [9]: 5 (hyphal expansion-inhibiting rate: 80% or more) | Growth inhibition (hyphal expansion-inhibiting rate grade) G.f [10]: 5 (hyphal expansion-inhibiting rate: 80% or more) | Damage index Growth inhibition [3]: 4 (1% or more and less than 20%) | Growth inhibition (hyphal expansion-inhibiting rate grade) F.c [11]: 5 (hyphal expansion-inhibiting rate: 80% or more) | Growth inhibition (hyphal expansion-inhibiting rate grade) R.sec [12]: 5 (hyphal expansion-inhibiting rate: 80% or more) | Growth inhibition (hyphal expansion-inhibiting rate grade) P.o [13]: 5 (hyphal expansion-inhibiting rate: 80% or more) | Growth inhibition (hyphal expansion-inhibiting rate grade) U.n [14]: 5 (hyphal expansion-inhibiting rate: 80% or more) | Growth inhibition (hyphal expansion-inhibiting rate grade) P.n [15]: 5 (hyphal expansion-inhibiting rate: 80% or more) | Growth inhibition (hyphal expansion-inhibiting rate grade) B.c [16]: 5 (hyphal expansion-inhibiting rate: 80% or more) | inhibition at 50 µg/mL ([5]; Concentration 50 mg/L): > 80% | Growth inhibition (hyphal expansion-inhibiting rate grade) P.h [17]: 5 (hyphal expansion-inhibiting rate: 80% or more)

CC(C)OC(=O)[C@]1(C)CC[C@H](Cc2ccc(Cl)cc2)[C@@]1(O)Cn1cncn1 (racemic) [Compound I-137, isopropyl-(1RS,2SR,3RS)-3-(4-chlorobenzyl)-2-hydroxy-1-methyl-2-(1H-1,2,4-triazol-1-ylmethyl)cyclopentanecarboxylate]
Controlling index Wheat powdery mildew [1]: 5 (Controlling rate: 40 or more) | Growth inhibition (hyphal expansion-inhibiting rate grade) A.m [7]: 5 (hyphal expansion-inhibiting rate: 80% or more) | Controlling index [2, 18]: 5 (81 to 100) | Growth inhibition (hyphal expansion-inhibiting rate grade) F.g [8]: 5 (hyphal expansion-inhibiting rate: 80% or more) | Growth inhibition (hyphal expansion-inhibiting rate grade) S.s [9]: 5 (hyphal expansion-inhibiting rate: 80% or more) | Growth inhibition (hyphal expansion-inhibiting rate grade) G.f [10]: 5 (hyphal expansion-inhibiting rate: 80% or more) | Damage index Growth inhibition [3]: 5 | Growth inhibition (hyphal expansion-inhibiting rate grade) F.c [11]: 5 (hyphal expansion-inhibiting rate: 80% or more) | Growth inhibition (hyphal expansion-inhibiting rate grade) R.sec [12]: 5 (hyphal expansion-inhibiting rate: 80% or more) | Growth inhibition (hyphal expansion-inhibiting rate grade) P.o [13]: 5 (hyphal expansion-inhibiting rate: 80% or more) | Growth inhibition (hyphal expansion-inhibiting rate grade) U.n [14]: 5 (hyphal expansion-inhibiting rate: 80% or more) | Growth inhibition (hyphal expansion-inhibiting rate grade) P.n [15]: 5 (hyphal expansion-inhibiting rate: 80% or more) | Growth inhibition (hyphal expansion-inhibiting rate grade) B.c [16]: 5 (hyphal expansion-inhibiting rate: 80% or more) | inhibition at 50 µg/mL ([5]; Concentration 50 mg/L): > 80% | Growth inhibition (hyphal expansion-inhibiting rate grade) P.h [17]: 5 (hyphal expansion-inhibiting rate: 80% or more)

CNC(=O)[C@]1(C)CC[C@H](Cc2ccc(Cl)cc2)[C@@]1(O)Cn1cncn1 (racemic) [Compound I-148, N-methyl-(1RS,2SR,3RS)-3-(4-chlorobenzyl)-2-hydroxy-1-methyl-2-(1H-1,2,4-triazol-1-ylmethyl)cyclopentane carboxyamide]
Controlling index Wheat powdery mildew [1]: 5 (Controlling rate: 40 or more) | Growth inhibition (hyphal expansion-inhibiting rate grade) A.m [7]: 5 (hyphal expansion-inhibiting rate: 80% or more) | Controlling index [2, 18]: 5 (81 to 100) | Growth inhibition (hyphal expansion-inhibiting rate grade) F.g [8]: 5 (hyphal expansion-inhibiting rate: 80% or more) | Growth inhibition (hyphal expansion-inhibiting rate grade) S.s [9]: 5 (hyphal expansion-inhibiting rate: 80% or more) | Growth inhibition (hyphal expansion-inhibiting rate grade) G.f [10]: 5 (hyphal expansion-inhibiting rate: 80% or more) | Damage index Growth inhibition [3]: 5 | Growth inhibition (hyphal expansion-inhibiting rate grade) F.c [11]: 5 (hyphal expansion-inhibiting rate: 80% or more) | Growth inhibition (hyphal expansion-inhibiting rate grade) R.sec [12]: 5 (hyphal expansion-inhibiting rate: 80% or more) | Growth inhibition (hyphal expansion-inhibiting rate grade) P.o [13]: 5 (hyphal expansion-inhibiting rate: 80% or more) | Growth inhibition (hyphal expansion-inhibiting rate grade) U.n [14]: 5 (hyphal expansion-inhibiting rate: 80% or more) | Growth inhibition (hyphal expansion-inhibiting rate grade) P.n [15]: 5 (hyphal expansion-inhibiting rate: 80% or more) | Growth inhibition (hyphal expansion-inhibiting rate grade) B.c [16]: 5 (hyphal expansion-inhibiting rate: 80% or more) | Growth inhibition ([5]; Concentration 50 mg/L): 5 (hyphal expansion-inhibiting rate: 80% or more) | Growth inhibition (hyphal expansion-inhibiting rate grade) P.h [17]: 5 (hyphal expansion-inhibiting rate: 80% or more)
